# Experimental data from patent US20110046191A1, “COMBINATION OF A MUSCARINIC RECEPTOR ANTAGONIST AND A BETA-2-ADRENOCEPTOR AGONIST” (ARGENTA DISCOVERY LTD., priority 2007, published 2011).
# pIC50: −log10 of the molar value. “And” between values parts separate entries of the source, which are not always exact repeats. Equal values may be shown once. Where a name gives a salt, the structure may show the parent alone.
# What was measured:
# [1] = molecular target: T1, recombinant human adrenergic beta 1 receptors (Homo sapiens, UniProt P08588); assay: Adrenergic β1 selectivity binding assay ([125I]-Iodocyanopindolol); details: inhibition of [125I]-Iodocyanopindolol binding; read-out: β1 bind p IC50
# T1 construct: purchased Euroscreen
# T1 sequence (P08588 whole entry): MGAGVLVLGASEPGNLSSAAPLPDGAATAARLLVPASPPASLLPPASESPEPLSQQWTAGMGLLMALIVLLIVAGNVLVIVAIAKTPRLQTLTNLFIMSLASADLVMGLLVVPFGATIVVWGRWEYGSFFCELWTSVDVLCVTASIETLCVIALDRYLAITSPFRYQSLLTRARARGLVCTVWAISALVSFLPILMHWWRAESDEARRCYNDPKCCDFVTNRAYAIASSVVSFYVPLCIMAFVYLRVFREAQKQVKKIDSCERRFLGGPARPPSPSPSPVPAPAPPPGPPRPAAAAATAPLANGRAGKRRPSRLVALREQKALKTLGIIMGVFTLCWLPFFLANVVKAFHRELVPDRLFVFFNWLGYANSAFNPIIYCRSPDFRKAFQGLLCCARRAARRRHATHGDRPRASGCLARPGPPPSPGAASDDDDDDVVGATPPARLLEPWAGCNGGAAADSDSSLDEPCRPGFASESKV
# Method: Membranes containing recombinant human adrenergic beta 1 receptors were obtained from Euroscreen. These were diluted in Assay Buffer (50 mM HEPES, 1 mM EDTA, 120 mM NaCl, 0.1% gelatin, pH 7.4) to provide a final concentration of membranes that gave a clear window between maximum and minimum specific binding.
# Assays were performed in U-bottomed 96-well polypropylene plates. […] For each assay plate 8 replicates were obtained for [^125I]-Iodocyanopindolol binding in the presence of 10 μL vehicle (10% (v/v) DMSO in Assay Buffer; defining maximum binding) or 10 μL Propranolol (10 μM final concentration; defining non-specific binding (NSB)). Membranes were then added to achieve a final volume of 100 μL. […] Five washes with 250 μL wash buffer (50 mM HEPES, 1 mM EDTA, 120 mM NaCl, pH 7.4) were performed at 4° C. to remove unbound radioactivity. The plates were dried then sealed from underneath using Packard plate sealers and MicroScint-O (50 μL) was added to each well. The plates were sealed (TopSeal A) and filter-bound radioactivity was measured with a scintillation counter (TopCount, Packard BioScience) using a 3-minute counting protocol.
# Total specific binding (B0) was determined by subtracting the mean NSB from the mean maximum binding. NSB values were also subtracted from values from all other wells.
# [2] = molecular target: T2, Adrenergic β2 (Homo sapiens, UniProt P07550); assay: Adrenergic β2 mediated cAMP production in H292 cells (AlphaScreen); assay type: cell-based; details: Intrinsic Activity as a fraction relative to the maximum activity of formoterol
# T2 construct: Adherent H292 cells were removed from tissue culture flasks; endogenous in cells; host or cells: H292 cells
# T2 sequence (P07550 whole entry): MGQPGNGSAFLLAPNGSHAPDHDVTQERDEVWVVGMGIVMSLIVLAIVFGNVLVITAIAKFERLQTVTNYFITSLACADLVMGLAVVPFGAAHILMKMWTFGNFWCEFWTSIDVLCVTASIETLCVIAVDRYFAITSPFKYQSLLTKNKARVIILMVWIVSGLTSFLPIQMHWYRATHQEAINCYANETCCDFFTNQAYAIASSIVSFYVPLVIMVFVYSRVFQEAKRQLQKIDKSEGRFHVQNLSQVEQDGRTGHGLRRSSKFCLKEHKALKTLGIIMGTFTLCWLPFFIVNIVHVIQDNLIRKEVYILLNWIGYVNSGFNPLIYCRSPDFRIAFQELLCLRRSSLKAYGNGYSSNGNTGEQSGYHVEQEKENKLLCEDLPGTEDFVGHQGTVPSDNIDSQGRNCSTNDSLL
# Method: Adrenergic β2 Mediated cAMP Production
# H292 cells were grown in 225 cm2 flasks incubator at 37° C., 5% CO2 in RPMI medium containing, 10% (v/v) FBS (foetal bovine serum) and 2 mM L-glutamine.
# Adherent H292 cells were removed from tissue culture flasks by treatment with Accutase™ cell detachment solution for 15 minutes. Flasks were incubated for 15 minutes in a humidified incubator at 37° C., 5% CO2. Detached cells were re-suspended in RPMI media (containing 10% (v/v) FBS and 2 mM L-glutamine) at 0.05×10^6 cells per mL. 5000 cells in 100 μL were added to each well of a tissue-culture-treated 96-well plate and the cells incubated overnight in a humidified incubator at 37° C., 5% CO2. The culture media was removed and cells were washed twice with 100 μL assay buffer and replaced with 50 μL assay buffer (HBSS solution containing 10 mM HEPES pH7.4 and 5 mM glucose). Cells were rested at room temperature for 20 minutes after which time 25 μL of rolipram (1.2 mM made up in assay buffer containing 2.4% (v/v) dimethylsulphoxide) was added. Cells were incubated with rolipram for 10 minutes after which time Compound A was added and the cells were incubated for 60 minutes at room temperature. The final rolipram concentration in the assay was 300 μM and final vehicle concentration was 1.6% (v/v) dimethylsulphoxide. The reaction was stopped by removing supernatants, washing once with 100 μL assay buffer and replacing with 50 μL lysis buffer. The cell monolayer was frozen at −80° C. for 30 minutes (or overnight).
# The concentration of cAMP (cyclic adenosine monophosphate) in the cell lysate was determined using AlphaScreen™ methodology. […] The AlphaScreen™ signal was measured using an EnVision spectrophotometer (Perkin-Elmer Inc.) with the recommended manufacturer's settings. cAMP concentrations were determined by reference to a calibration curve determined in the same experiment using standard cAMP concentrations. […] Intrinsic Activity was expressed as a fraction relative to the maximum activity determined for formoterol in each experiment.
# [3] = test system: Methacholine-induced bronchoconstriction in the guinea pig; assay: Lung function in anaesthetised guinea pigs: methacholine-induced bronchoconstriction; assay type: in vivo; details: 2 hours prior to methacholine, after 5 μg/kg methacholine i.v.
# Method: Evaluation of Lung Function in Anaesthetised Guinea Pigs.
# Male Dunkin-Hartley guinea pigs (300-600 g) were weighed and dosed with vehicle (0.05M phosphate, 0.1% Tween 80, 0.6% saline, pH 6) or compound via the intratracheal route under recoverable gaseous anaesthesia (5% halothane in oxygen). Animals were dosed with compound or vehicle two hours prior to the administration of methacholine. Guinea pigs were anaesthetised with pentobarbitone (1 mL/kg of 60 mg/mL solution i.p.) approximately 30 minutes prior to the first bronchoconstrictor administration. The trachea was cannulated and the animal ventilated using a constant volume respiratory pump (Harvard Rodent Ventilator model 683) at a rate of 60 breath/min and a tidal volume of 5 mL/kg. A jugular vein was cannulated for the administration of methacholine or maintenance anaesthetic (0.1 mL of pentobarbitone solution, 60 mg/mL, as required).
# The animals were transferred to a Flexivent System (SCIREQ, Montreal, Canada) in order to measure airway resistance. The animals were ventilated (quasi-sinusoidal ventilation pattern) at 60 breaths/min at a tidal volume of 5 mL/kg. A positive end expiratory pressure of 2-3 cm H2O was applied. Respiratory resistance was measured using the Flexivent “snapshot” facility (1 second duration, 1 Hz frequency). Once a stable baseline resistance value had been obtained the animals were given methacholine in ascending doses (0.5, 1, 2, 3 and 5 μg/kg, i.v) at approximately 4-minute intervals via the jugular catheter. After each administration of bronchoconstrictor the peak resistance value was recorded. Guinea pigs were euthanised with approximately 1.0 mL pentobarbitone sodium (Euthatal) intravenously after the completion of the lung function measurements.
# Percentage bronchoprotection produced by a compound was calculated at each dose of brochoconstrictor as follows:
# Where % change Rveh is the mean of the maximum percentage change in airway resistance in the vehicle treated group. The results reported were measured after 5 μg/kg methacholine and were expressed as percentage bronchoprotection (mean±s.e.mean).
# Guinea pigs were dosed with vehicle, 3 and 27 μg/kg compound (BA1), 0.2 μg/kg compound (MA2) (Crystalline Form A) or a combination of 3 μg/kg Compound (BA1) and 0.2 μg/kg Compound (MA2) via the intratracheal route. Administration of increasing intravenous doses of methacholine (0.5, 1, 2, 3 and 5 μg/kg) evoked dose-related bronchoconstriction in the vehicle treated animals ranging from 13±2.6% at 0.5 μg/kg to 2530±280% at 5 μg/kg two hours after vehicle administration (n=9).
# […] Administration of increasing intravenous doses of methacholine (0.5, 1, 2, 3 and 5 μg/kg) evoked dose-related bronchoconstriction in the vehicle treated animals ranging from 14±2.6% at 0.5 μg/kg to 2240±269% at 5 μg/kg two hours after vehicle administration (n=10).
# [4] = molecular target: T3, recombinant human α1D receptor (Homo sapiens, UniProt P25100); assay: Adrenergic α1D selectivity binding assay ([3H]-prazosin); details: inhibition of [3H]-prazosin binding; read-out: α1 bind pIC50 (converted)
# T3 construct: expressed in transfected cells; host or cells: HEK293
# T3 sequence (P25100 1-572): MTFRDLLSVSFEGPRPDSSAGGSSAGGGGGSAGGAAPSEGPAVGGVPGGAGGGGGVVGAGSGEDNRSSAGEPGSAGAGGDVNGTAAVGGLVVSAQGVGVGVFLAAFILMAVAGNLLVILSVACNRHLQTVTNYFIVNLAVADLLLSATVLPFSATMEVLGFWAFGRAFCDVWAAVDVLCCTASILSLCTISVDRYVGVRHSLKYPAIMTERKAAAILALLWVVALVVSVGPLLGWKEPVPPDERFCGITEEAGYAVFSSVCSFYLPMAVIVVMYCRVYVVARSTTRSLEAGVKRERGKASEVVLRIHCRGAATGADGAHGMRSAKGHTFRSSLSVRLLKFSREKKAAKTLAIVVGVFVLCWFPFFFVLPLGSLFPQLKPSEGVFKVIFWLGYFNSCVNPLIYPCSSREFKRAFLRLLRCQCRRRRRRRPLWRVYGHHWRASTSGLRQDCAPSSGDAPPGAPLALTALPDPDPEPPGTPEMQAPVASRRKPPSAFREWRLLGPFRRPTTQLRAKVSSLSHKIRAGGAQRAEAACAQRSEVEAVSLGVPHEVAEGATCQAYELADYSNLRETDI
# Method: Membranes were prepared from human embryonic kidney 293 (HEK293) cells expressing recombinant human α1D receptor. These were diluted in Assay Buffer (50 mM HEPES, 1 mM EDTA, 0.1% gelatin, pH 7.4) to provide a final concentration of membranes that gave a clear window between maximum and minimum specific binding.
# Assays were performed in U-bottomed 96-well polypropylene plates. 10 μL [^3H]-prazosin (0.3 nM final concentration) and 10 μL of Compound A (10× final concentration) were added to each test well. For each assay plate 8 replicates were obtained for [^3H]-prazosin binding in the presence of 10 μL vehicle (10% (v/v) DMSO in Assay Buffer; defining maximum binding) or 10 μL BMY7378 (10 μM final concentration; defining non-specific binding (NSB)). Membranes were then added to achieve a final volume of 100 μL. […] Five washes with 250 μL wash buffer (50 mM HEPES, 1 mM EDTA, pH 7.4) were performed at 4° C. to remove unbound radioactivity. […] The plates were sealed (TopSeal A) and filter-bound radioactivity was measured with a scintillation counter (TopCount, Packard BioScierice) using a 3-minute counting protocol.
# Total specific binding (B0) was determined by subtracting the mean NSB from the mean maximum binding. […]
# [5] = Deaggregation properties of micronised Salt Form A (Fine Particle Fraction); assay type: physicochemical; details: micronised material, across 0-75% RH
# Text: ‘Salt Form A’ was Micronised in a 50 mm jet mill, with ejector pressure 5 bar and milling pressure 1.5-2 bar, giving (90% yield). Particle size of the micronised material as determined by Malvern Laser Diffraction with dry powder feeder was d(0.1) 0.77 μm: d(0.5), 1.45μ: d(0.9): 2.65 μm.
# [6] = Gravimetric vapour sorption (GVS); assay type: physicochemical; details: at 80% RH, ambient temperature
# Method: GVS profiles were measured using a Dynamic Vapour Sorption DVS-1 instrument. The solid sample ca. 1-5 mg was placed into a glass vessel and the weight of the sample was recorded during a dual cycle step method (40 to 90 to 0 to 90 to 0% relative humidity (RH), in steps of 10% RH). GVS profiles were recorded at ambient temperature.
# [7] = BA1 27 μg/kg intratracheal, dihydrobromide
compound,measurement,setting,value
"CCN(CC)CCN(CCNCCc1ccc(O)c2[nH]c(=O)sc12)C(=O)CCOCCc1cccc2ccccc12 [BA1, N-[2-(Diethylamino)ethyl]-N-(2-{[2-(4-hydroxy-2-oxo-2,3-dihydro-1,3-benzothiazol-7-yl)ethyl]amino}ethyl)-3-[2-(1-naphthyl)ethoxy]propanamide dihydrobromide]",pIC50,[1],< 5.00
same,β2 Int Act,[2],0.8
same,increase in resistance,[3]; BA1 1 μg/kg intratracheal,1380±333%
same,inhibition of methacholine-induced bronchoconstriction,[3]; BA1 1 μg/kg intratracheal,38%
same,increase in resistance,[3]; BA1 3 μg/kg intratracheal,2090±239%
same,inhibition of methacholine-induced bronchoconstriction,[3]; BA1 3 μg/kg intratracheal,17%
same,increase in resistance,[3]; [7],470±221% and 242±69%
same,inhibition of methacholine-induced bronchoconstriction,[3]; [7],81% and 89%
"CCN(CC)CCN(CCNCCc1ccc(O)c2[nH]c(=O)sc12)C(=O)CCOCCc1cccc(Cl)c1 [BA2, N-[2-(Diethylamino)ethyl]-N-(2-{[2-(4-hydroxy-2-oxo-2,3-dihydro-1,3-benzothiazol-7-yl)ethyl]amino}ethyl)-3-[2-(3-chlorophenyl)ethoxy]propanamide dihydrobromide]",pIC50,[1],< 5.00
same,β2 Int Act,[2],0.7
same,IC50,[4],> 0.794 µM
"O=c1[nH]c2c(O)ccc([C@@H](O)CNCCSCCCNCCc3ccccc3Cl)c2s1 [BA3, 7-[(1R)-2-({2-[(3-{[2-(2-Chlorophenyl)ethyl]amino}propyl)thio]ethyl}amino)-1-hydroxyethyl]-4-hydroxy-1,3-benzothiazol-2(3H)-one dihydrobromide]",β2 Int Act,[2],0.8
"C[N+](C)(CCOCc1ccc(Cl)cc1)Cc1cnc([C@](O)(c2ccccc2)C2CCCCC2)o1 [MA11 Salt Form A, [2-(4-chloro-benzyloxy)-ethyl]-[2-((R)-cyclohexyl-hydroxy-phenyl-methyl)-oxazol-5-ylmethyl]-dimethyl-ammonium hemi-naphthalene-1,5-disulfonate]",Fine Particle Fraction (FPF),[5],> 60%
same,GVS weight increase,[6],less than 0.5 % w/w
